Patent US6432928B1, “Complexes and their compositions” (Chinoin Gyogyszer es Vegyeszeti Termekek Gyara Rt., priority 1994, dated 2002)
In brackets after ≈: the same amount, converted by molar mass. Read-outs that look alike come from different tables or passages of the source.

Key:
[1] = test system: cell line PC 3; test: SRB-assay of cell growth, cell line PC 3; type: cell-based, human; conditions: for cell growth by SRB-assay, extinction at 540 nm / cell growth, % of control: PC 3, 10^−6M of Taxol and cyclodextrin; for cell growth, % of control: control = 100%; for toxicity to the cells, in words: PC 3, tested concentration of Table 2 (10^−6M, 0.001 mM)
Experimental: (§1) As control solutions containing similar amounts of cyclodextrins and no Taxol, further the Taxol-Cremophor EL composition. Cremophor EL solution and the untreated cell cultures were examined.
(§2) The experiments were carried out and evaluated on both cell lines according to the examination methods of F. Skehan et al [New Colorimetric Assay of Anticancer Drug Screening, J. Natl. Canc. Inst. 82, 1107-1113 (1990) and A. Martin and M. Clynes (Comparison of 5 Microplate Colorimetric Assays for in Vitro Cytotoxicity Testing and Cell Proliferation Assays, Cytotechnology 11, 49-58 (1993)] in the Pathological and Experimental Cancer Research Institute No. 1 of the Semmelweis Medical University, Budapest.
(§3) The cells were exposed in a RPMI 1640 medium containing 10% of Foetal Calf Serum (FCS) medium on a microplate of 96 wells, by placing 5000 cells in 100 μl of medium.
(§4) The cell cultures were treated after 24 hours with a solution containing the test substances in 100 μl of a FCS-free RPMI medium, thus the final concentration of FCS became 5%. Every evaluation point is the averaged result of 8 parallels, the control was present in 8 parallels on each plate, thus the evaluation point was obtained by averaging 24 parallels. The eight test compositions were examined simultaneously, in one test on each cell line.
(§5) After 72 and 96 hours the cell growth was measured by SRB-assay (the determining method is SRB-painting of the total protein, the total protein is proportional to the cell growth, the extinction was read by a Microplate reader at a wave length of 540 nm).

[2] = test system: cell line K562; test: SRB-assay of cell growth, cell line K 562; type: cell-based, human; conditions: for cell growth by SRB-assay, extinction at 540 nm / cell growth, % of control: K562, 10−6M of Taxol and cyclodextrin; for cell growth, % of control: control = 100%; for toxicity to the cells, in words: K562, tested concentration of Table 3 (10−6M, 0.001 mM)
Experimental: as §1, §2, §3, §4, §5

[3] = Appearance and Taxol content of the compositions as prepared; type: physicochemical; conditions: Taxol alone dissolved in ethanol or 1:1 ethanol and water
[4] = cited from earlier work
[5] = physchem; conditions: 22 °C, thermodynamic from solid
[6] = physchem; conditions: 25 °C, water
[7] = Solubility of Taxol with cyclodextrins and co-solvents, Higuchi-Connor method, HPLC; conditions: for solubility: Taxol with RAMEB
[8] = test system: mouse; conditions: mouse experiments, a 50% triacetine emulsion; cited from earlier work
[9] = cited from earlier work; remark: listed apart in the source

## OC[C@H]1O[C@@H]2O[C@H]3[C@H](O)[C@@H](O)[C@@H](O[C@H]4[C@H](O)[C@@H](O)[C@@H](O[C@H]5[C@H](O)[C@@H](O)[C@@H](O[C@H]6[C@H](O)[C@@H](O)[C@@H](O[C@H]7[C@H](O)[C@@H](O)[C@@H](O[C@H]8[C@H](O)[C@@H](O)[C@@H](O[C@H]9[C@H](O)[C@@H](O)[C@@H](O[C@H]1[C@H](O)[C@H]2O)O[C@@H]9CO)O[C@@H]8CO)O[C@@H]7CO)O[C@@H]6CO)O[C@@H]5CO)O[C@@H]4CO)O[C@@H]3CO [γ-CD, γ-cyclodextrin]
[1]; incubation time 72 hours
  cell growth by SRB-assay, extinction at 540 nm: 0.582 ± 0.126
  cell growth, % of control: (77%)
[1]; incubation time 96 hours
  cell growth by SRB-assay, extinction at 540 nm: 0.937 ± 0,214
  cell growth, % of control: (71%)
[1]
  toxicity to the cells, in words: slightly toxic
[2]; incubation time 72 hours
  cell growth by SRB-assay, extinction at 540 nm: 0.555 ± 0.200
  cell growth, % of control: (50%)
[2]; incubation time 96 hours
  cell growth by SRB-assay, extinction at 540 nm: 0.531 ± 0,072
  cell growth, % of control: (34%)
[2]
  toxicity to the cells, in words: very toxic

## CC(=O)O[C@H]1C(=O)[C@@]2(C)[C@H]([C@H](OC(=O)c3ccccc3)[C@]3(O)C[C@H](OC(=O)[C@H](O)[C@@H](NC(=O)c4ccccc4)c4ccccc4)C(C)=C1C3(C)C)[C@]1(OC(C)=O)CO[C@@H]1C[C@@H]2O (relative stereo) [Taxol, [2aR-[2aα,4β,4αβ,6β,9α(αR*,βS*a11α,12α,12aα,12bα]]-β-(benzoylamino)-α-hydroxy-benzene-propanoic acid 6,12-b-bis(acetyloxy)-12-(benzoyloxy)-2a,3-4,4a,5,6,9,10,11,12,12a,12b-dodecahydro-4,11-dihydroxy-4a,8,13,13-tetra-methyl-5-oxo-7,11-methano-1H-cyklodeca[3,4]-benz-[1,2-b]-oxeth-9-yl-ester]]
[3]
  behaviour on dilution: immediately precipitates when diluted
[4]; 250-350 moles of a methylated cyclodextrin derivative related to 1 mole of Taxol (Hungarian application P93 01373)
  solubility: about 1 mg/ml
[4]; mixed micelle system with bile acid salts and phospholipide
  solubility of Taxol: 800 µg/mL
[4]; with γ-cyclodextrin, molar ratio of 1:20
  solubility: 160 µg/mL
[5]; 2:1 ethanol:water, aqueous with cosolvent or surfactant or cyclodextrin
  solubility at 24 h: 4000 µg/mL (≈ 4.68 mM)
[5]; DIMEB in 2:1 ethanol:water, aqueous with cosolvent or surfactant or cyclodextrin
  solubility at 24 h: 4000 µg/mL (≈ 4.68 mM)
[5]; DIMEB in water, aqueous with cosolvent or surfactant or cyclodextrin
  solubility at 24 h: ~1000 µg/mL (≈ 1.17 mM)
[5]; OH-P-βCD in water, aqueous with cosolvent or surfactant or cyclodextrin
  solubility at 24 h: 100 µg/mL (≈ 0.117 mM)
[5]; RAMEB in 2:1 ethanol-water, aqueous with cosolvent or surfactant or cyclodextrin
  solubility at 24 h: 4000 µg/mL (≈ 4.68 mM)
[5]; RAMEB in ethanol-water, aqueous with cosolvent or surfactant or cyclodextrin
  solubility at 24 h: 4000 µg/mL (≈ 4.68 mM)
[5]; water
  solubility at 24 h: 5.9 µg/mL (≈ 0.00691 mM)
[5]; γ-CD in 2:1 ethanol:water, aqueous with cosolvent or surfactant or cyclodextrin
  solubility at 24 h: 4000 µg/mL (≈ 4.68 mM)
[6]
  solubility: 0.55 to 0.59 µg/mL (≈ 0.000644 to 0.000691 mM)
[7]; Taxol 4 mg/ml with γ-CD 1:63, 2:1 ethanol:water, remark wraps over r10-r11: white suspension
  remark (appearance): white
[7]; Taxol 4 mg/ml, no CD, 2:1 ethanol:water, remark wraps over r6-r9: clear solution. opalescening. then white precipitate
  remark (appearance): clear solution.
[7]; molar ratio Taxol:CD 1:278, water
  solubility: 859.9 µg/mL
[7]; molar ratio Taxol:CD 1:750, water
  solubility: 42.5 µg/mL
[7]; molar ratio Taxol:CD 1:1500, water
  solubility: 4.4 µg/mL
[7]; molar ratio Taxol:CD 1.300, water
  solubility: 231.7 µg/mL

## COC[C@H]1O[C@@H]2O[C@H]3[C@H](O)[C@@H](OC)[C@@H](O[C@H]4[C@H](O)[C@@H](OC)[C@@H](O[C@H]5[C@H](O)[C@@H](OC)[C@@H](O[C@H]6[C@H](O)[C@@H](OC)[C@@H](O[C@H]7[C@H](O)[C@@H](OC)[C@@H](O[C@H]8[C@H](O)[C@@H](OC)[C@@H](O[C@H]1[C@H](O)[C@H]2OC)O[C@@H]8COC)O[C@@H]7COC)O[C@@H]6COC)O[C@@H]5COC)O[C@@H]4COC)O[C@@H]3COC [DIMEB, heptakis-2,6-0-dimethyl-β-cyclodextrin]
[1]; incubation time 72 hours
  cell growth by SRB-assay, extinction at 540 nm: 0.725 ± 0.200
  cell growth, % of control: (96%)
[1]; incubation time 96 hours
  cell growth, % of control: (102%)
[1]
  toxicity to the cells, in words: not toxic
[2]; incubation time 72 hours
  cell growth by SRB-assay, extinction at 540 nm: 0.819 ± 0.178
  cell growth, % of control: (74%)
[2]; incubation time 96 hours
  cell growth by SRB-assay, extinction at 540 nm: 1.729 ± 0.185
  cell growth, % of control: (110%)
[2]
  toxicity to the cells, in words: not toxic

## CC(=O)OCC(COC(C)=O)OC(C)=O [triacetine, 1,2,3-triacetyl-glycerol]
[8]
  LD50: 1.2 mg/mL

## O=C(O)c1ccccc1Nc1cccc(C(F)(F)F)c1 [flufenamic acid]
[9]; aqueous, without methanol
  “aqueous” stability constant: 1300 M⁻¹
[9]; in the presence of 25% by volume methanol
  stability constant: about 400 M^31 1
